Laboratory results: PMC11219744, “Renal excretion of 1,2-dihydroxynaphthalene (DHN) in firefighting instructors after exposure to polycyclic aromatic hydrocarbons (PAHs) during live fire training” (Scientific Reports, 2024)
Each block holds one compound with its values, some of them ahead of it.

Experiments:
[1] = Human biomonitoring: urinary excretion of PAH metabolites (GC–MS/MS, creatinine-normalised) in firefighting instructors before and after live fire training
Description: All study participants (n = 6) were male firefighting instructors from Germany. […] Before the start of the study, all subjects declared that they were non-smokers. Tattoo bearers were excluded before the start of the study as tattoo ink can be a potential source of polycyclic aromatic hydrocarbons. The authors declare that this research was conducted in accordance with the relevant regulations, including the Declaration of Helsinki. All subjects gave written informed consent after being informed about the study by the investigator.
Exposure to combustion products took place in several training sessions that simulated live fire conditions by burning a defined number of uncoated chipboards in an overseas container. The container was located in a hall with exhaust air purification. […] In addition, all subjects wore long-sleeved undergarments under their turnout gear. Only laundered clothing and cleaned equipment (e.g. helmets, masks) were used. The donning and doffing of clothing and protective equipment took place only in a smoke-free, well-ventilated area. Immediately after taking off the firefighters' gloves after training, the participants put on nitrile gloves for further undressing. After removing the helmet, flash hood and SCBA face shield, the participants put on particle filtering half masks (FFP3) to remove contaminated turnout jackets and trousers. After a break for rehydration and cool down still wearing their undergarments, the participants went to shower. […] The interval between two consecutive training sessions for each subject was at least six days. […] In this way, each subject was biomonitored at each of the five training sessions. All additional (unscheduled) urinations between the predefined times were also collected in separate containers and pooled afterwards with the next scheduled sample. […] A total of 270 samples were to be collected using this procedure for all participants and five training sessions of each individual. Subjects completed a questionnaire for each sampling period to account for possible pre-exposure or concurrent exposure to PAHs from sources other than the fire simulation unit, such as occupational exposure to combustion products, exposure to tobacco smoke (active/passive) and barbecue activities, and consumption of smoked or charbroiled foods.
In brief, the analytes were extracted by liquid–liquid extraction with n-hexane after enzymatic hydrolysis of the urine samples with ß-glucuronidase/arylsulfatase (isolated from helix pomatia) and derivatised by silylation with N-trimethylsilyl-N-methyl trifluoroacetamide afterwards. […] All standards were obtained from LGC-Standards, Wesel, Germany.
DHN in urine was determined referring to a method described in detail by Klotz et al.[29]. […] External calibration with internal standardisation by an isotopically labelled analogue of the target compound was done by analysis of pool urine samples spiked with the glucuronides of DHN and D6-1,2-dihydroxynaphthalene (internal standard) before enzymatic hydrolysis. Both standards are not commercially available and were obtained as a gift from the Institute of Occupational, Social and Environmental Medicine at the University of Erlangen-Nuremberg (Germany). A detailed description of the synthesis of the compounds is given by[26]. […] Up to now, there is no external quality assessment scheme available for DHN.
Urinary creatinine was analysed in the Institute of Clinical Chemistry and Laboratory Medicine of University Medical Centre of the Johannes Gutenberg University Mainz using a photometrical assay based on the method of[30].

[2] = Time to peak and initial elimination half-life of the urinary biomarkers (first-order model, linear mixed effects); assay type: in vivo, human
Description: The initial half-life of each biomarker was estimated using statistical methods described previously[6],[32]. In short, we estimated the first-order elimination rate constant λ based on the model in Eq. (1):1 C=C0+B·e^λ·t+∈
Here, C is the creatinine-adjusted concentration in urine after the uptake phase, C0 is the baseline concentration before training, B is the difference from peak to baseline concentration, t is the time since peak concentration, and ϵ is the error term. […] Using package nlme[33] for the statistical environment R[34],[35], the model was fitted as a linear mixed effects model for the log concentration difference to baseline ln(C–C0) as the outcome. The model was fitted simultaneously for all data and included fixed effects for biomarker, time since peak, and their interaction term. It used random slopes for time since peak and random intercepts for […]. Errors were assumed to be autocorrelated according to an AR(1) process.

[3] = design: method as in PMID 32464238; settings: by scheduled sampling time; cited from earlier work
[4] = upper margin of internal exposure typically found in smokers; cited from earlier work
[5] = cited from earlier work
[6] = urinary excretion, time after onset of exposure

- Proportion in the total excretion of the three naphthalene metabolites ([1]; after exposure (after sampling 3, rest of the sampling period), based on median concentrations): lower than 10%
- Increase in concentration from before exposure up to the maximum of excretion, factor ([1]; male, human, in vivo): about 6
- Concentration in urine, IQR ([1]; male, human, in vivo, 0 h): 4.55–9.78 µg/g creatinine
- Concentration in urine, range ([1]; male, human, in vivo, 0 h): 2.07–42.68 µg/g creatinine
- Concentration in urine, IQR ([1]; male, human, in vivo, 1 h): 11.05–18.20 µg/g creatinine
- Concentration in urine, median ([1]; male, human, in vivo, 1 h): 11.96 µg/g creatinine
- Concentration in urine, range ([1]; male, human, in vivo, 1 h): 3.97–58.89 µg/g creatinine
- Concentration in urine, median ([1]; male, human, in vivo, 2 h): 7.42 µg/g creatinine
- Concentration in urine, IQR ([1]; male, human, in vivo, 3 h): 8.14–14.40 µg/g creatinine
- Concentration in urine, median ([1]; male, human, in vivo, 3 h): 10.07 µg/g creatinine
- Concentration in urine, range ([1]; male, human, in vivo, 3 h): 5.62–23.16 µg/g creatinine
- Concentration in urine, IQR ([1]; male, human, in vivo, 6 h): 3.62–7.98 µg/g creatinine
- Concentration in urine, median ([1]; male, human, in vivo, 6 h): 5.12 µg/g creatinine
- Concentration in urine, range ([1]; male, human, in vivo, 6 h): 1.17–12.78 µg/g creatinine
- Concentration in urine, IQR ([1]; male, human, in vivo, 9 h): 2.34–5.27 µg/g creatinine
- Concentration in urine, median ([1]; male, human, in vivo, 9 h): 3.48 µg/g creatinine
- Concentration in urine, range ([1]; male, human, in vivo, 9 h): 1.30–11.32 µg/g creatinine
- Concentration in urine, IQR ([1]; male, human, in vivo, 11 h): 1.76–4.19 µg/g creatinine
- Concentration in urine, median ([1]; male, human, in vivo, 11 h): 3.14 µg/g creatinine
- Concentration in urine, range ([1]; male, human, in vivo, 11 h): 1.08–10.02 µg/g creatinine
- Concentration in urine, IQR ([1]; male, human, in vivo, 18 h): 1.93–4.24 µg/g creatinine
- Concentration in urine, median ([1]; male, human, in vivo, 18 h): 3.26 µg/g creatinine
- Concentration in urine, range ([1]; male, human, in vivo, 18 h): 1.02–14.56 µg/g creatinine
- Median increase in morning urine after exposure (sampling 9) vs. before (sampling 1) ([1]; male, human, in vivo, 18 h): 1.5 fold
- Concentration in urine, IQR ([1]; male, human, in vivo, -0.4 h): 1.13–3.47 µg/g creatinine
- Concentration in urine, median ([1]; male, human, in vivo, -0.4 h): 1.94 µg/g creatinine
- Concentration in urine, range ([1]; male, human, in vivo, -0.4 h): 0.21–10.94 µg/g creatinine
- Concentration in urine, IQR ([1]; male, human, in vivo, -4.2 h): 1.18–2.88 µg/g creatinine
- Concentration in urine, median ([1]; male, human, in vivo, -4.2 h): 2.00 µg/g creatinine
- Concentration in urine, range ([1]; male, human, in vivo, -4.2 h): 0.30–10.02 µg/g creatinine
- Median increase from baseline (sample 2) to peak excretion ([1]; peak: sample 5 for 1-PYR, sample 4 otherwise): 6.6 fold
- half-life ([2]; male, human, initial elimination half-life after peak excretion, urine, read-out: Estimated half-life, mean (converted)): 5.2 h
- Time to peak, median [2, 6]: 3.3 h
- Time to peak, range [2, 6]: 2.2 to 11.2 h
SMILES: Oc1ccc2ccccc2c1 [2-NAP, 2-hydroxynaphthalene]
- Time of peak excretion after the end of the training session [3]: 1 h
- 95th percentile of urinary concentration in smokers [4]: 29.0 µg/g crea.

SMILES: c1ccc2ccccc2c1 [NAP, naphthalene]
- IARC carcinogenicity category [5]: group 2B (possibly carcinogenic to humans)
